# Data as given in ChEMBL document CHEMBL5729081, “Morpholine derivative” (2022).
# Biological target: hERG (KCNH2) potassium channel (Homo sapiens, UniProt Q12809)
# Assay: For electrophysiological measurements cells were seeded onto 35 mm sterile culture dishes containing 2 ml culture medium without Hygromycin B. Cells were cultivated at a density that enabled single cells (without visible connections to neighbouring cells) to be measured. […] The cells were continuously maintained in and passaged in sterile culture flasks containing nutrient mixture F-12 (DMEM/F-12 with L-Glutamine) supplemented with 10% foetal bovine serum and 10% penicillin/streptomycin solution. […] The 35 mm culture dishes upon which cells were seeded at a density allowing single cells to be recorded were placed on the dish holder of the microscope and continuously perfused (at approximately 1 ml/min) with the bath solution (sodium chloride 150 mM, potassium chloride 4 mM, calcium chloride 1.2 mM, magnesium chloride 1 mM, HEPES 10 mM, pH (NaOH) 7.4) at near physiological temperature (36±1° C.). After formation of a Gigaohm seal between the patch electrodes and individual hERG stably transfected CHO cells (pipette resistance range: 2.0 MΩ-7.0 MΩ; seal resistance range: >1 GΩ) the cell membrane across the pipette tip was ruptured to assure electrical access to the cell interior (whole-cell patch-configuration). In case the quality of the seal was poor, the process of seal formation was repeated with a different cell and a new pipette. […] […]
# Format: cell-based
# Details: CHO cells stably expressing the hERG channel, pH 7.4
# Chain of hERG (KCNH2) potassium channel (Q12809 whole entry, the tested form may be a part): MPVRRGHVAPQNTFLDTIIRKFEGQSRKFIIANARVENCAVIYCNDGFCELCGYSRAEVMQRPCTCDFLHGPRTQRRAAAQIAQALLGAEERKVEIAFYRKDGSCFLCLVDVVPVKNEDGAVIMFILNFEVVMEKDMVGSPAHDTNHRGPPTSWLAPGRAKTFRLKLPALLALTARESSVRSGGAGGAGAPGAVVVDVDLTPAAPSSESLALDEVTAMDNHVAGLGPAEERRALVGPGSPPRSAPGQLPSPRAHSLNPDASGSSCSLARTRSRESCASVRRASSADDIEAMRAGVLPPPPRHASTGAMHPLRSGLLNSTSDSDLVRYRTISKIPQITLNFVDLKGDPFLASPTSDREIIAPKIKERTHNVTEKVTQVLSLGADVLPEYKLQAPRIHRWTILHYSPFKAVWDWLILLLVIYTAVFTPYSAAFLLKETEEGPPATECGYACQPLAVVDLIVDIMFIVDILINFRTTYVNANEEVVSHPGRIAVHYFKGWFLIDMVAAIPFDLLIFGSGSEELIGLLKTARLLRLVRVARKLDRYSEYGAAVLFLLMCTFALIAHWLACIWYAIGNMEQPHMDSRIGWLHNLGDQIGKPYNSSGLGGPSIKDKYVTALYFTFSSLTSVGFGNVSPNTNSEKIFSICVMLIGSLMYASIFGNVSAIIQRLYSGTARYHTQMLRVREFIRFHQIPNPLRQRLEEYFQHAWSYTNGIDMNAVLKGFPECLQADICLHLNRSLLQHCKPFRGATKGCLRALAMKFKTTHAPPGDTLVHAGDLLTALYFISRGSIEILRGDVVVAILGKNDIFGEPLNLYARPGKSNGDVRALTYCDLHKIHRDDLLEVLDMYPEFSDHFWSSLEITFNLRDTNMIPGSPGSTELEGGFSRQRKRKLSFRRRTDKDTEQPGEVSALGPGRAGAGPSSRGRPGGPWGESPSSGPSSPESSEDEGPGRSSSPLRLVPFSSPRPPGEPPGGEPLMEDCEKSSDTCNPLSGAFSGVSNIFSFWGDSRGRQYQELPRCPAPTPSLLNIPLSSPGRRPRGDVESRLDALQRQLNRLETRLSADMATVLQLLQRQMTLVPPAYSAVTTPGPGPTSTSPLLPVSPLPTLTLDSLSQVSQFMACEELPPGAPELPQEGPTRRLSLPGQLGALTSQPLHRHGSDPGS
structure (smiles),measurement,value
O=C(Nc1ccc([C@H]2CNCCO2)cc1)c1ccc(Cl)nc1,IC50,14.3 µM
